Earlier results on three molecules are cited in patent publication US20200132604A1, “METHODS OF DETERMINING PROTEIN STRUCTURE USING TWO-PHOTON FLUORESCENCE MEASUREMENTS” (Biodesy, Inc., priority 2017, published 2020).

Data set [1] has as its target monomeric forms of avidin or streptavidin. The note with it: read-out: biotin-binding affinity.
The test system of another data set is human IgG-Fc. The note with it: Sugita, et al. (2013).

On to `O=C(O)CCCC[C@@H]1SC[C@@H]2NC(=O)N[C@@H]21` [biotin], for which the Kd in data set [1] is approximately 10 nM.

On to NARKFYKG, for which the affinity in the data set on human IgG-Fc is 6.5e+06 M⁻¹.

On to NKFRGKYK, for which the affinity with human IgG-Fc was 8.9e+06 M⁻¹.
